Experimental data from ChEMBL document CHEMBL4507327 (2021).

Columns and labels:
[1] = molecular target: GABA-A receptor; anion channel (Rattus norvegicus) (UniProt O09028+P15431+P18506+P18508+P19969+P20236+P23574+P23576+P28471+P28473+P30191+P62813+P63079+P63138+Q91ZM7+Q9ES14); test: Inhibition of GABAA, Muscimol, Central at 10 µM in the Eurofins-Panlabs radioligand binding assay (Eurofins_assay_226500); format: protein-complex assay; settings: Compound concentration 10.0 uM
[2] = molecular target: Tyrosine-protein kinase ABL1 (Homo sapiens, UniProt P00519); test: Abl(ABL1IHY1) Takeda global kinase panel
Activin receptor type-2A = Activin receptor type-2A (Homo sapiens, UniProt P27037); test: ACtR2(AC2ALGE1) Takeda global kinase panel
[3] = molecular target: Cyclin-dependent kinase 7 (Homo sapiens, UniProt P50613); test: CDK7(CDK7CGS1) Takeda global kinase panel
[4] = molecular target: Cyclin-dependent kinase 8 (Homo sapiens, UniProt P49336); test: CDK8(CDK8CGS1) Takeda global kinase panel
Ephrin type-A receptor 7 = Ephrin type-A receptor 7 (Homo sapiens, UniProt Q15375); test: EphA7(EPA7LGF1) Takeda global kinase panel
Ephrin type-A receptor 8 = Ephrin type-A receptor 8 (Homo sapiens, UniProt P29322); test: EphA8(EPA8LGF1) Takeda global kinase panel
[5] = molecular target: Receptor tyrosine-protein kinase erbB-4 (Homo sapiens, UniProt Q15303); test: HER4(ERB4CGF1) Takeda global kinase panel
[6] = molecular target: Fibroblast growth factor receptor 3 (Homo sapiens, UniProt P22607); test: FGFR3(FGF3LGF1) Takeda global kinase panel
[7] = molecular target: Tyrosine-protein kinase JAK3 (Homo sapiens, UniProt P52333); test: JAK3(JAK3LGRG) Takeda global kinase panel
[8] = molecular target: Mast/stem cell growth factor receptor Kit (Homo sapiens, UniProt P10721); test: Kit(KIT1MGC1) Takeda global kinase panel
[9] = molecular target: Tyrosine-protein kinase Lck (Homo sapiens, UniProt P06239); test: Lck(LCK1LGF1) Takeda global kinase panel
LIM domain kinase 2 = LIM domain kinase 2 (Homo sapiens, UniProt P53671); test: LIMK2(LIM2LGV1) Takeda global kinase panel
[10] = molecular target: Leukocyte tyrosine kinase receptor (Homo sapiens, UniProt P29376); test: LTK(LTK1LGF1) Takeda global kinase panel
[11] = molecular target: Mitogen-activated protein kinase kinase kinase kinase 5 (Homo sapiens, UniProt Q9Y4K4); test: KHS1(M4K5LGY1) Takeda global kinase panel
[12] = molecular target: Mitogen-activated protein kinase 13 (Homo sapiens, UniProt O15264); test: p38delta(MP13LGP1) Takeda global kinase panel
[13] = molecular target: Mitogen-activated protein kinase 9 (Homo sapiens, UniProt P45984); test: JNK2(MAP9LGF1) Takeda global kinase panel
[14] = molecular target: Serine/threonine-protein kinase Nek9 (Homo sapiens, UniProt Q8TD19); test: Nek9(NEK9LGF1) Takeda global kinase panel
[15] = molecular target: Platelet-derived growth factor receptor beta (Homo sapiens, UniProt P09619); test: PDGFRbeta(PDGBIHC1) Takeda global kinase panel
[16] = molecular target: Serine/threonine-protein kinase PLK3 (Homo sapiens, UniProt Q9H4B4); test: PLK3(PLK3PHY1) Takeda global kinase panel
[17] = molecular target: Calcium/calmodulin-dependent protein kinase type 1B (Homo sapiens, UniProt Q6P2M8); test: CaMK1beta(PNCKLGRI) Takeda global kinase panel
[18] = molecular target: Protein kinase C beta type (Homo sapiens, UniProt P05771); test: PKCbeta(PRKBPHY3) Takeda global kinase panel
[19] = molecular target: Receptor-interacting serine/threonine-protein kinase 2 (Homo sapiens, UniProt O43353); test: RIPK2(RIP2LGI1) Takeda global kinase panel
SRSF protein kinase 3 = SRSF protein kinase 3 (Homo sapiens, UniProt Q9UPE1); test: MSSK1(SRP3MHRL) Takeda global kinase panel
[20] = molecular target: Tyrosine-protein kinase TXK (Homo sapiens, UniProt P42681); test: TXK(TXK1CGD5) Takeda global kinase panel
[21] = molecular target: Phosphatidylinositol 4,5-bisphosphate 3-kinase catalytic subunit delta isoform (Homo sapiens, UniProt O00329); test: PI3KCD(PI3DCGRK) Takeda global kinase panel
[22] = molecular target: B2 bradykinin receptor (Homo sapiens) (UniProt P30411); settings: Compound concentration 10.0 uM
[23] = molecular target: Estrogen receptor (Homo sapiens) (UniProt P03372); settings: Compound concentration 10.0 uM
[24] = molecular target: Glutamate NMDA receptor (Rattus norvegicus) (UniProt P35439+Q00959+Q00960+Q00961+Q62645+Q8VHN2+Q9R1M7); settings: Compound concentration 10.0 uM
[25] = molecular target: T1, Muscarinic acetylcholine receptor M1 (Homo sapiens) (UniProt P11229); settings: Compound concentration 10.0 uM
T1 sequence (whole entry): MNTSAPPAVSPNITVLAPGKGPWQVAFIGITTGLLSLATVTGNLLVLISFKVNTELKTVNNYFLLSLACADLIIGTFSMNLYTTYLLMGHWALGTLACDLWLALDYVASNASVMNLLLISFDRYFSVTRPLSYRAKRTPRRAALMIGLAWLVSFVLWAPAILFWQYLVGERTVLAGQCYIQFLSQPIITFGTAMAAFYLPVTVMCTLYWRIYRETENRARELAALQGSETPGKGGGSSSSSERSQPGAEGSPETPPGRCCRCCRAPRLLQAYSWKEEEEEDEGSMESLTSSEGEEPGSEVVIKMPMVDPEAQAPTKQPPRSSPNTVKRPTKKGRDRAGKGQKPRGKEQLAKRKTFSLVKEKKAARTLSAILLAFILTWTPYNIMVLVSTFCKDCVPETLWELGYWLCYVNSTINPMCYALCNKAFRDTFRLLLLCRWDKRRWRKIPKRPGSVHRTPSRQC

[26] = molecular target: T2, Muscarinic acetylcholine receptor M2 (Homo sapiens) (UniProt P08172); settings: Compound concentration 10.0 uM
T2 sequence (whole entry): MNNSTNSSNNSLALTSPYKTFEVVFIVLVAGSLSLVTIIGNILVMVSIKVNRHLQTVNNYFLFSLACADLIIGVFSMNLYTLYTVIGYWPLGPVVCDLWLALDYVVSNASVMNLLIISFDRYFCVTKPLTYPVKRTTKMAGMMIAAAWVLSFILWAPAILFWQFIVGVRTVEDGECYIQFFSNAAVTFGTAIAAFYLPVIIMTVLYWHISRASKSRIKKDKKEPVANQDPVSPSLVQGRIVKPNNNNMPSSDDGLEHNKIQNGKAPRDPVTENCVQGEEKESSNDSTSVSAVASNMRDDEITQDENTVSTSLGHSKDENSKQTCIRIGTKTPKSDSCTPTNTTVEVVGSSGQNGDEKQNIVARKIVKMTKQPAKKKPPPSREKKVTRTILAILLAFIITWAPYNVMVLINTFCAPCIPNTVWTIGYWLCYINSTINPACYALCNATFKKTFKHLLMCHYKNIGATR

Chain of Tyrosine-protein kinase Lck (P06239 whole entry, the tested form may be a part): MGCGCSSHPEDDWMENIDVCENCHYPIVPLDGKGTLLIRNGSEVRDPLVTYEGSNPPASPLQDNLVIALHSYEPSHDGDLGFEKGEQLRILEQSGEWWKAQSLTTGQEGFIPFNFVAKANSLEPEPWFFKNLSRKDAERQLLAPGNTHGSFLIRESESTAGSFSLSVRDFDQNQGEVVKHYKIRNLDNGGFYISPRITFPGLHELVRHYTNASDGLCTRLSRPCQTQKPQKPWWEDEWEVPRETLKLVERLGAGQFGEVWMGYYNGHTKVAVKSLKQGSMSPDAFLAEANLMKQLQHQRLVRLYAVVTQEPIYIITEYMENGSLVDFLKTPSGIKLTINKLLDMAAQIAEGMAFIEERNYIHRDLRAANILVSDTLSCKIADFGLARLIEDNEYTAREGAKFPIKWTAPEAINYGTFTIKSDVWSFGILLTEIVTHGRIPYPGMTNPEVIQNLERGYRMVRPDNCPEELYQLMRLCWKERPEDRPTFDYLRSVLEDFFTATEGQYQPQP
Chain of Receptor-interacting serine/threonine-protein kinase 2 (O43353 whole entry): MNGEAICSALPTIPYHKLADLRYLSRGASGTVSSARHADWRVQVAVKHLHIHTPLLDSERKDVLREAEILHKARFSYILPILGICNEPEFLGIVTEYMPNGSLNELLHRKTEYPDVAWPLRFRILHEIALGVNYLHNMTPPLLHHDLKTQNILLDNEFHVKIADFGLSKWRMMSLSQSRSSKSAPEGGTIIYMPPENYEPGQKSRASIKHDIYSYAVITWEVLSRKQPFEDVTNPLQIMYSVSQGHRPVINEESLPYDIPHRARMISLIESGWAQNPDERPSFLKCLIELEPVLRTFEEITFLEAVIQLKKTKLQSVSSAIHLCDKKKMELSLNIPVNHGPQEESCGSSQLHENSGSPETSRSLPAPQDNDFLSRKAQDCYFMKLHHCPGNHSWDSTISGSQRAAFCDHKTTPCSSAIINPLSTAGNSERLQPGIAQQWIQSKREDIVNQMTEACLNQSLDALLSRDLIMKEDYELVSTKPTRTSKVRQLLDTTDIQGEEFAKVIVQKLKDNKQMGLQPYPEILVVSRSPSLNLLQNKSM
Chain of SRSF protein kinase 3 (Q9UPE1 whole entry): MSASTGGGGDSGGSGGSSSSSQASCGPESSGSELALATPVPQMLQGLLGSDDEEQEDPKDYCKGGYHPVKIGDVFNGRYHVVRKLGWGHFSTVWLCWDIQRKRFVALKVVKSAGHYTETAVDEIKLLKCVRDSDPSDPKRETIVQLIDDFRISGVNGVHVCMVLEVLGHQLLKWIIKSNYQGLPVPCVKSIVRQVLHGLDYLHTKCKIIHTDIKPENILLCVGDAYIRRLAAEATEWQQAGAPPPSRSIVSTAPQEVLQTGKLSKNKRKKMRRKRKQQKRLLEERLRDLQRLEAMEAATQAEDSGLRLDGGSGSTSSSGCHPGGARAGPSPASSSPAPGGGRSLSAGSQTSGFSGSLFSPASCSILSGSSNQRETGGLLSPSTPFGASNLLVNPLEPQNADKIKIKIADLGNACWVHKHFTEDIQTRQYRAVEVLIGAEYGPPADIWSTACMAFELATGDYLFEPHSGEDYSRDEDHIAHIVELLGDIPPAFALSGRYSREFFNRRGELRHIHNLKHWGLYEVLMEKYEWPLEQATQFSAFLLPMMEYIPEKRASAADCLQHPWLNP
Chain of Cyclin-dependent kinase 7 (P50613 whole entry): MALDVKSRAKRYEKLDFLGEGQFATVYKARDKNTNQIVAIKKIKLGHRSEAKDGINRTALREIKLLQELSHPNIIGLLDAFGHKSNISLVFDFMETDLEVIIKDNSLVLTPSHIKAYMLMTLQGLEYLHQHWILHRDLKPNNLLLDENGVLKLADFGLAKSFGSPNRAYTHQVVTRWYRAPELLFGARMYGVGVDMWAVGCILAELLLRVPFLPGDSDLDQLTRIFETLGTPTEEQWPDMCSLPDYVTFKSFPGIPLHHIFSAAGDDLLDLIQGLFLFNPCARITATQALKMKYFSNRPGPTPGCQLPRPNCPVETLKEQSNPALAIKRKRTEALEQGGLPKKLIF
Chain of Mast/stem cell growth factor receptor Kit (P10721 whole entry): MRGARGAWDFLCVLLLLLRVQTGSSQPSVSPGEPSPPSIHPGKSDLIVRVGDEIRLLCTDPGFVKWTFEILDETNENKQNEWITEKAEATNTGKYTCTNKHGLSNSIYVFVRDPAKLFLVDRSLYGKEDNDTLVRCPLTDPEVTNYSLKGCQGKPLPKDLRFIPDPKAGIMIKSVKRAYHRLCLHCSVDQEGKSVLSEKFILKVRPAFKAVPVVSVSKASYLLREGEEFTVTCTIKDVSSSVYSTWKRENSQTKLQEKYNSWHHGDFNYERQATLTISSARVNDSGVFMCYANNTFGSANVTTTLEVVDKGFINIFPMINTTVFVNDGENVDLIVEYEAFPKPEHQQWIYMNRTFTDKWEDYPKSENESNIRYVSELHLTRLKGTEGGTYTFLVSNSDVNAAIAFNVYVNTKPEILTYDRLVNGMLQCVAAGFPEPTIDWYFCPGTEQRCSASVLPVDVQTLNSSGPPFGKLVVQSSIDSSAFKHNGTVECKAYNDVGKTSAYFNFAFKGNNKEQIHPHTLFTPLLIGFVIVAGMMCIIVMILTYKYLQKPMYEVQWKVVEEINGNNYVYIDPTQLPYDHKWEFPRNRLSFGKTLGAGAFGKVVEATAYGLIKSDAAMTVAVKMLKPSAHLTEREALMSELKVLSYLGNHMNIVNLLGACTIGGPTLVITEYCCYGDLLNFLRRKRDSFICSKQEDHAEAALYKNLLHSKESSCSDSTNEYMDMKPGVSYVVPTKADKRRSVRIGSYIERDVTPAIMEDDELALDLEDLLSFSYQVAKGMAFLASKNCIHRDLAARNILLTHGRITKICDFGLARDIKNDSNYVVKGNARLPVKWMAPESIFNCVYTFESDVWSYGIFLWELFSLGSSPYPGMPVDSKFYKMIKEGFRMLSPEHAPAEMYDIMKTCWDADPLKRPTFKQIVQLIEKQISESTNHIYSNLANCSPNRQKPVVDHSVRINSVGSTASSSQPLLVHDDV
Chain of Serine/threonine-protein kinase Nek9 (Q8TD19 whole entry): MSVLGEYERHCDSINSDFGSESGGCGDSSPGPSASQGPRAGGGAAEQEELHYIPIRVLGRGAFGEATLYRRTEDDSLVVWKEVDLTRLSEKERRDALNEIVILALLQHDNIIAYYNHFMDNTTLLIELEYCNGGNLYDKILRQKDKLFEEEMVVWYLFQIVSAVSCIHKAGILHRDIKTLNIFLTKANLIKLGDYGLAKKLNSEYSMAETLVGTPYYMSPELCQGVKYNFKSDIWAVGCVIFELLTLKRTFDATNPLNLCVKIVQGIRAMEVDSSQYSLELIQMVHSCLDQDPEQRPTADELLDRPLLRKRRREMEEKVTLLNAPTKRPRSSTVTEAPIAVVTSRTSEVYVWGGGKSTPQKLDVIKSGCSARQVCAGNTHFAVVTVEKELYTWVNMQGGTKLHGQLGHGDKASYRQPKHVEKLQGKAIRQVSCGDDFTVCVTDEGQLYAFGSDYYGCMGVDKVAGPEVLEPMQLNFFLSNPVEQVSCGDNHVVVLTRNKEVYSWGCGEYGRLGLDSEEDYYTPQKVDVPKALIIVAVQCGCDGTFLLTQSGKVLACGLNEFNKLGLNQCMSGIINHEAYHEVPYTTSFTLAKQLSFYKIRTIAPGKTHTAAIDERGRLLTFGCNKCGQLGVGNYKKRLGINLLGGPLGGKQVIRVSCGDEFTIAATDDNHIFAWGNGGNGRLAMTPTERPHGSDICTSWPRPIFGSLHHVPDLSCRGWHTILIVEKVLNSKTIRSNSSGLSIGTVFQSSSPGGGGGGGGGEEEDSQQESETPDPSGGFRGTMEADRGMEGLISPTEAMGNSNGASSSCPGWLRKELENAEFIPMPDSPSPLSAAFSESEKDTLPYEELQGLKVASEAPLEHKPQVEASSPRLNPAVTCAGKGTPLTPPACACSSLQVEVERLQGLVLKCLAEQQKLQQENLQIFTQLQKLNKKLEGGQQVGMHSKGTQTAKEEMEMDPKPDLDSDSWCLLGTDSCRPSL
Chain of Phosphatidylinositol 4,5-bisphosphate 3-kinase catalytic subunit delta isoform (O00329 whole entry, canonical isoform): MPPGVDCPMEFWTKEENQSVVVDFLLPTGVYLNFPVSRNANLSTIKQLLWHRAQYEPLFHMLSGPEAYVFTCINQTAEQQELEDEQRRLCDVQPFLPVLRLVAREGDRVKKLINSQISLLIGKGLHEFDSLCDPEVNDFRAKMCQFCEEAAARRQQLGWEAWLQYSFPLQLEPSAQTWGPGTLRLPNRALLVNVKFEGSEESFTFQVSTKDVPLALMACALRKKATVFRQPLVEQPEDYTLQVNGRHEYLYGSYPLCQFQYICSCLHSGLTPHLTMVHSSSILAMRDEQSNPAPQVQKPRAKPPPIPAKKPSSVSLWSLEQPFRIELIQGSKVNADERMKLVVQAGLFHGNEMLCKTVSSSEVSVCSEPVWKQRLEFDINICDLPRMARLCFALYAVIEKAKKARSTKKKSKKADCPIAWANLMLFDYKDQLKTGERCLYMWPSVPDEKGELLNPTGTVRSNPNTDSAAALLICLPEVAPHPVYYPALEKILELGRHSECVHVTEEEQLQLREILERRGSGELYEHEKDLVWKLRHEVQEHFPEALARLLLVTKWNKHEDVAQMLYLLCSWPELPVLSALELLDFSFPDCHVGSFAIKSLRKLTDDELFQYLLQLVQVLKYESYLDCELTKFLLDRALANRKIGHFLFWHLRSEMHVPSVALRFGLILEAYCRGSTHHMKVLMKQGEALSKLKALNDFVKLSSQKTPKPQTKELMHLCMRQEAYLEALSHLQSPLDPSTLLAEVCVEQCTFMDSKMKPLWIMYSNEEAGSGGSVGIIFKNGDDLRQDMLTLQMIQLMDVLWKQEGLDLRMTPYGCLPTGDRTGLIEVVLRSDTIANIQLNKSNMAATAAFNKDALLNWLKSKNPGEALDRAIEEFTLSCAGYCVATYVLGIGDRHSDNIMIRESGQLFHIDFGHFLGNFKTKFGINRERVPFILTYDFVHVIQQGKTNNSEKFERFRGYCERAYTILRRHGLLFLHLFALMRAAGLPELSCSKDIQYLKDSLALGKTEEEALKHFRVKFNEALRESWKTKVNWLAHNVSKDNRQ

| SMILES | inhibition [1] | IC50 [2] | IC50 (Activin receptor type-2A) | IC50 [3] | IC50 [4] | IC50 (Ephrin type-A receptor 7) | IC50 (Ephrin type-A receptor 8) | IC50 [5] | IC50 [6] | IC50 [7] | IC50 [8] | IC50 [9] | IC50 (LIM domain kinase 2) | IC50 [10] | IC50 [11] | IC50 [12] | IC50 [13] | IC50 [14] | IC50 [15] | IC50 [16] | further results |
| --- | --- | --- | --- | --- | --- | --- | --- | --- | --- | --- | --- | --- | --- | --- | --- | --- | --- | --- | --- | --- | --- |
| CN1C(=O)[C@@H](N2CCc3cn(Cc4ccccc4)nc3C2=O)COc2ccccc21 [TP-030-1] | -1% | 1 µM | 1 µM | 1 µM | 1 µM | 1 µM | 1 µM | 1 µM | 1 µM | 1 µM | 1 µM | 1 µM | 1 µM | 1 µM | 1 µM | 1 µM | 1 µM | 1 µM | 1 µM | 1 µM | IC50 [17]: 1 µM; IC50 [18]: 1 µM; IC50 [19]: 1 µM; IC50 (SRSF protein kinase 3): 1 µM; IC50 [20]: 1 µM; IC50 [21]: 1 µM; inhibition [22]: 4%; inhibition [23]: 36%; inhibition [24]: 0%; inhibition [25]: 0%; inhibition [26]: -4% |
| CN1C(=O)[C@@H](N2CCc3cn(CC4CCS(=O)(=O)CC4)nc3C2=O)COc2ccccc21 [TP-030n] | -7% | 1 µM | 1 µM | 1 µM | 1 µM | 1 µM | 1 µM | 1 µM | 1 µM | 1 µM | 1 µM | 1 µM | 1 µM | 1 µM | 1 µM | 1 µM | 1 µM | 1 µM | 1 µM | 1 µM | IC50 [17]: 1 µM; IC50 [18]: 1 µM; IC50 [19]: 1 µM; IC50 (SRSF protein kinase 3): 1 µM; IC50 [20]: 1 µM; IC50 [21]: 1 µM; inhibition [22]: -4%; inhibition [23]: 5%; inhibition [24]: -2%; inhibition [25]: 2%; inhibition [26]: 9% |
